In US20200216417A1, “INHIBITORS OF FIBROBLAST ACTIVATION PROTEIN” (Praxis Biotech LLC, priority 2019, published 2020) one finds IC50 and inhibition data, which are given here for 14 compounds.

Holding throughout (assay type): biochemical
For assay [1], the target named is T1, recombinant human PREP (rhPREP) (Homo sapiens, UniProt P48147).
T1 sequence (P48147 1-710): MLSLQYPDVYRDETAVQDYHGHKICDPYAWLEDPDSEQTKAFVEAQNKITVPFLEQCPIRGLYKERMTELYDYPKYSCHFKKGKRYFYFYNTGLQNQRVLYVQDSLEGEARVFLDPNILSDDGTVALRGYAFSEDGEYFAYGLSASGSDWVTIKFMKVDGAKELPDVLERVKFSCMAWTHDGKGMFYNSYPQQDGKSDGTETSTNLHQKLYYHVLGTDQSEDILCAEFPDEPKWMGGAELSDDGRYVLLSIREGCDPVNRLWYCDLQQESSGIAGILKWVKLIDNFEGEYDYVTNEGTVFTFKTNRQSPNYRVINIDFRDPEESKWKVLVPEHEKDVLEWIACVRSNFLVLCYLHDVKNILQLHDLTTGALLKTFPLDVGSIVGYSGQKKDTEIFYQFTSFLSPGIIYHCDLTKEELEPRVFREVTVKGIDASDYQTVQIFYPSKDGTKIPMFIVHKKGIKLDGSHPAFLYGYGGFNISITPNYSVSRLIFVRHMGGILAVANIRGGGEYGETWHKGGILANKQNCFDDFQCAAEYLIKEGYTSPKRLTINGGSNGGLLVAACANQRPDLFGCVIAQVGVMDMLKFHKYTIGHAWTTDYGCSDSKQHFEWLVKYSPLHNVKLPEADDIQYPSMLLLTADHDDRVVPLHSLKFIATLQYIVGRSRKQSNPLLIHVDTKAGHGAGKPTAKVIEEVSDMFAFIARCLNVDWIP
Kind of assay: PREP enzymatic activity assay, Z-Gly-Pro-AMC.

Assay [2] has as its target T2, recombinant human DPP9 (rhDPP9) (Homo sapiens, UniProt Q86TI2).
T2 construct: purchased R&S system / R&D systems (both sic) 5419-SE
Kind of assay: DPP9 inhibition assay, 10 ng rhDPP9, Tris-HCl/BSA buffer. To be noted: Table 3B.

For assay [3], the target named is T3, recombinant human FAPα (rhFAPα) (Homo sapiens, UniProt Q12884).
T3 construct: purchased R&S system (so in the source)
T3 sequence (Q12884 1-760): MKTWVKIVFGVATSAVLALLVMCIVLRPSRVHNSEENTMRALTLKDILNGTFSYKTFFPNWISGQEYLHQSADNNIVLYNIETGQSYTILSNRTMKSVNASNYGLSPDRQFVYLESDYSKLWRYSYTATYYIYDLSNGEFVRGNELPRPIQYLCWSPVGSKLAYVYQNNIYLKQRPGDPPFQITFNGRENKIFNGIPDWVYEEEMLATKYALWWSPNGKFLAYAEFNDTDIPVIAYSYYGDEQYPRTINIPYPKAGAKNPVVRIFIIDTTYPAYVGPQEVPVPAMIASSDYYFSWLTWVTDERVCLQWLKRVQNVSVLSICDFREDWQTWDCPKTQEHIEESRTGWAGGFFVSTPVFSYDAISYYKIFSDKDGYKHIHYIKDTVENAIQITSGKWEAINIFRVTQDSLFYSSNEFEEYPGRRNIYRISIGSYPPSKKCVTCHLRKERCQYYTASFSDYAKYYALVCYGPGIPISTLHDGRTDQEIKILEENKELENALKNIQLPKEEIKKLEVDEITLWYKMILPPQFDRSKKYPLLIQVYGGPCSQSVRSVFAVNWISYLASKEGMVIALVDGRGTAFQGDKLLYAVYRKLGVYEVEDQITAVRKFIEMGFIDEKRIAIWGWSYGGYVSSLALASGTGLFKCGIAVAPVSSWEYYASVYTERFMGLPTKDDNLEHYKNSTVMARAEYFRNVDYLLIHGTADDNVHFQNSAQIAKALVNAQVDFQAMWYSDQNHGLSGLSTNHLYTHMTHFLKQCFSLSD
Kind of assay: FAPα enzymatic exopeptidase (dipeptidase) activity assay, Z-Gly-Pro-AMC. To be noted: for inhibition at 1 µM: exopeptidase inhibition at 1 μM test compound.

Assay [4] has as its target T2, recombinant human DPP9 (rhDPP9). Put plainly: DPP9 enzymatic activity assay, 40 ng rhDPP9, HEPES buffer. The conditions noted are these: Table 3A.
Assay [5] addresses T4, recombinant human DPPIV (rhDPPIV) (Homo sapiens, UniProt P27487).
T4 construct: purchased R&S system (so in the source)
Put plainly: DPPIV enzymatic activity assay, H-Gly-Pro-pNA.

Setting [6] is: Table 2, read-out: rhFAPα (% exo inh @ 1 μM).
Setting [7] is: Table 3B, read-out: rhFAPα % exo inh @ 1 μM.
The mark [8] stands for this setting: exopeptidase, Table 2, read-out: rhFAPα (exo IC50).
Where [9] appears, read: exopeptidase, Table 3A, read-out: rhFAPα (exo IC50).

Read-outs that look alike come from different tables or passages of the source. Bounds are passed on as bounds.

T4 sequence (P27487 whole entry): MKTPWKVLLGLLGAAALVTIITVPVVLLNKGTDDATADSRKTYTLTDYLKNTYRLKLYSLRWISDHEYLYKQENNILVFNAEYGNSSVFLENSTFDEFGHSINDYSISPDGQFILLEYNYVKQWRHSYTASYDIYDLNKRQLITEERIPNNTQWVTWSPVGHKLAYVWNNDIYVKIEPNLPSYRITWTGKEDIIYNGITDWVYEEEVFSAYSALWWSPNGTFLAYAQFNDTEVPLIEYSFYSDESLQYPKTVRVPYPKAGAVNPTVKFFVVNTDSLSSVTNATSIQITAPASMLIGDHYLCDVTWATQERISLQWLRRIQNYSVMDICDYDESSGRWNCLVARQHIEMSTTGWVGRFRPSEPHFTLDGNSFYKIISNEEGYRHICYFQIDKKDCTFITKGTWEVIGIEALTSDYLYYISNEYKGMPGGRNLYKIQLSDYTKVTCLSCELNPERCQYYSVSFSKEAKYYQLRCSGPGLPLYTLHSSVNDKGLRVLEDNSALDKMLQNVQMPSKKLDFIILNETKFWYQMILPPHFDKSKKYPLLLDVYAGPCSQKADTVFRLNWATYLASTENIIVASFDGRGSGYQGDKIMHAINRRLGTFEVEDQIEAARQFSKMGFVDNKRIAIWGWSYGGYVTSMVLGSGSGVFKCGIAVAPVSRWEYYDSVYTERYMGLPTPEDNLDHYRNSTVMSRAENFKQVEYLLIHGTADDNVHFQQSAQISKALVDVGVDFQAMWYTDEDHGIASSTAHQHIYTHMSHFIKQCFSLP
T2 sequence (Q86TI2 whole entry): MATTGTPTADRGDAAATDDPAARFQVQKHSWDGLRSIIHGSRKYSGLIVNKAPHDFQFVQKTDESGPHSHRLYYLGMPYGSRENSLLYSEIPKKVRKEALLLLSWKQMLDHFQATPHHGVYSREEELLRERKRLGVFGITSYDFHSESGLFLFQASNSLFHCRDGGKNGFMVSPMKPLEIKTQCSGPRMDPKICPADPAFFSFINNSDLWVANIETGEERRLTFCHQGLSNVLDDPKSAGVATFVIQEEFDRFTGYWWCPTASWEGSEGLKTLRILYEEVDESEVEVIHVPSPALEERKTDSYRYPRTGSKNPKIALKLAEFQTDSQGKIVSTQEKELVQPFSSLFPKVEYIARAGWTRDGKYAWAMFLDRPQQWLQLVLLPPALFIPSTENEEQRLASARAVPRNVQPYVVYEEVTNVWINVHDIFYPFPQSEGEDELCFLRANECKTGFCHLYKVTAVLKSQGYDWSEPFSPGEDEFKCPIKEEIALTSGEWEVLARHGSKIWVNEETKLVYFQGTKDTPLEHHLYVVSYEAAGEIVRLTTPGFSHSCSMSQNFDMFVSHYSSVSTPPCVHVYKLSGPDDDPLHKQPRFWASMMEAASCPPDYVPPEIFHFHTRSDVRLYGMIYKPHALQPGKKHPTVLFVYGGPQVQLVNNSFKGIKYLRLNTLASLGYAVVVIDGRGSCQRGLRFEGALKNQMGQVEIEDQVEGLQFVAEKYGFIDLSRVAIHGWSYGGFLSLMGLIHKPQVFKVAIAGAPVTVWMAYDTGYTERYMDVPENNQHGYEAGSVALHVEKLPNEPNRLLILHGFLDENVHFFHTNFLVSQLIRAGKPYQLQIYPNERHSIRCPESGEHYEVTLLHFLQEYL

On to `N#C[C@@H]1CC(F)(F)CN1C(=O)CNC(=O)c1ccncc1NC(=O)Cc1ccccc1` [Compound 1, (S)—N-(2-(2-cyano-4,4-difluoropyrrolidin-1-yl)-2-oxoethyl)-3-(2-phenylacetamido)isonicotinamide], for which the IC50 is above 10 µM in assay [1] (Table 3A); above 10 µM in assay [1] (Table 3B); 1000 to 10000 nM in assay [2]; below 1000 nM in assay [3] (Table 3B, read-out: rhFAP IC50); below 1000 nM in assay [3] (setting [8]); below 1000 nM in assay [3] (setting [9]). The IC50 in assay [4], in assay [5] (Table 3A) and in assay [5] (Table 3B) was above 10 µM throughout. For the same compound, the inhibition at 1 µM in assay [3] (setting [6]) and in assay [3] (setting [7]) was above 50% each time.
`CC(Nc1cnccc1C(=O)NCC(=O)N1CC(F)(F)C[C@H]1C#N)c1ccc(F)cc1` (stereo partly drawn) [Compound 4, N-(2-((S)-2-cyano-4,4-difluoropyrrolidin-1-yl)-2-oxoethyl)-3-((1-(4-fluorophenyl)ethyl)amino)isonicotinamide]: the IC50 in assay [1] (Table 3A) is above 10 µM; in assay [1] (Table 3B), above 10 µM; in assay [2], 1000 to 10000 nM; in assay [3] (Table 3B, read-out: rhFAP IC50), below 1000 nM; in assay [3] (setting [8]) it was below 1000 nM; in assay [3] (setting [9]), below 1000 nM. The IC50 in assay [4] was above 10 µM; in assay [5] (Table 3A) it was 1 to 10 µM; in assay [5] (Table 3B) it was 1 to 10 µM. Further, the inhibition at 1 µM in assay [3] (setting [6]) and in assay [3] (setting [7]) was above 50% in each case.
With `N#C[C@@H]1CC(F)(F)CN1C(=O)CNC(=O)c1ccnc(N2CCN(C(c3ccc(F)cc3)c3ccc(F)cc3)CC2)c1` [Compound 6, (S)-2-(4-(bis(4-fluorophenyl)methyl)piperazin-1-yl)-N-(2-(2-cyano-4,4-difluoropyrrolidin-1-yl)-2-oxoethyl)isonicotinamide], the IC50 was 1000 to 10000 nM in assay [2]; below 1000 nM in assay [3] (Table 3B, read-out: rhFAP IC50); below 1000 nM in assay [3] (setting [8]); below 1000 nM in assay [3] (setting [9]); 1 to 10 µM in assay [4]. In addition, the inhibition at 1 µM in assay [3] (setting [6]) and in assay [3] (setting [7]) was above 50% throughout.
Consider `N#C[C@@H]1CC(F)(F)CN1C(=O)CNC(=O)c1ccncc1CCc1ccc(Cl)cc1` [Compound 10, (S)-3-(4-chlorophenethyl)-N-(2-(2-cyano-4,4-difluoropyrrolidin-1-yl)-2-oxoethyl)isonicotinamide], for which the half-inhibitory concentration (IC50) in assay [1] (Table 3A) was 1 to 10 µM; in assay [1] (Table 3B), 1 to 10 µM; in assay [2], 1000 to 10000 nM; in assay [3] (Table 3B, read-out: rhFAP IC50) it was below 1000 nM; in assay [3] (setting [8]), below 1000 nM; in assay [3] (setting [9]), below 1000 nM. Besides, the half-maximal inhibitory concentration (IC50) in assay [4], in assay [5] (Table 3A) and in assay [5] (Table 3B) was 1 to 10 µM throughout. For the same compound, the inhibition at 1 µM in assay [3] (setting [6]) and in assay [3] (setting [7]) was above 50% in each case.
With `N#C[C@@H]1CC(F)(F)CN1C(=O)CNC(=O)c1ccncc1CCc1ccc(F)cc1` [Compound 11, (S)—N-(2-(2-cyano-4,4-difluoropyrrolidin-1-yl)-2-oxoethyl)-3-(4-fluorophenethyl)isonicotinamide], the IC50 in assay [1] (Table 3A) is 1 to 10 µM; in assay [1] (Table 3B), 1 to 10 µM; in assay [2] it was 1000 to 10000 nM; in assay [3] (Table 3B, read-out: rhFAP IC50), below 1000 nM; in assay [3] (setting [8]), below 1000 nM; in assay [3] (setting [9]), below 1000 nM. The IC50 in assay [4] was 1 to 10 µM; in assay [5] (Table 3A), above 10 µM; in assay [5] (Table 3B) it was above 10 µM. For the same compound, the inhibition at 1 µM in assay [3] (setting [6]) and in assay [3] (setting [7]) was above 50% in each case.
Turning to `N#C[C@@H]1CC(F)(F)CN1C(=O)CNC(=O)c1ccncc1/C=C/c1ccc(F)cc1` [Compound 12, (S,E)-N-(2-(2-cyano-4,4-difluoropyrrolidin-1-yl)-2-oxoethyl)-3-(4-fluorostyryl)isonicotinamide], the IC50 is above 10 µM in assay [1] (Table 3A); above 10 µM in assay [1] (Table 3B); 1000 to 10000 nM in assay [2]; below 1000 nM in assay [3] (Table 3B, read-out: rhFAP IC50); below 1000 nM in assay [3] (setting [8]); below 1000 nM in assay [3] (setting [9]). The half-inhibitory concentration (IC50) in assay [4], in assay [5] (Table 3A) and in assay [5] (Table 3B) was 1 to 10 µM throughout. The inhibition at 1 µM in assay [3] (setting [6]) and in assay [3] (setting [7]) was above 50% throughout.
For the compound `C/C(=C\c1cnccc1C(=O)NCC(=O)N1CC(F)(F)C[C@H]1C#N)c1ccc(F)cc1` [Compound 13, (S,E)-N-(2-(2-cyano-4,4-difluoropyrrolidin-1-yl)-2-oxoethyl)-3-(2-(4-fluorophenyl)prop-1-en-1-yl)isonicotinamide], the IC50 in assay [1] (Table 3A) was above 10 µM; in assay [1] (Table 3B) it was above 10 µM; in assay [2], 1000 to 10000 nM; in assay [3] (Table 3B, read-out: rhFAP IC50), below 1000 nM; in assay [3] (setting [8]), below 1000 nM; in assay [3] (setting [9]), below 1000 nM. Further, the IC50 is 1 to 10 µM in assay [4], above 10 µM in assay [5] (Table 3A) and above 10 µM in assay [5] (Table 3B). The inhibition at 1 µM in assay [3] (setting [6]) and in assay [3] (setting [7]) was above 50% in each case.
As to `COc1ccc(C#Cc2cnccc2C(=O)NCC(=O)N2CC(F)(F)C[C@H]2C#N)cc1` [Compound 36], the concentration for half-maximal inhibition (IC50) in assay [1] (Table 3B) was above 10 µM; in assay [2] it was above 10000 nM; in assay [3] (Table 3B, read-out: rhFAP IC50), below 1000 nM; in assay [5] (Table 3B) it was above 10 µM. In addition, the inhibition at 1 µM in assay [3] (setting [7]) was above 50%.
On to `N#C[C@@H]1CC(F)(F)CN1C(=O)CNC(=O)c1ccncc1C#Cc1ccc(Cl)cc1` [Compound 37], for which the IC50 in assay [1] (Table 3B) was above 10 µM; in assay [2], above 10000 nM; in assay [3] (Table 3B, read-out: rhFAP IC50), below 1000 nM; in assay [5] (Table 3B), above 10 µM. Further, in assay [3] (setting [7]), the inhibition at 1 µM was above 50%.
In the case of `N#C[C@@H]1CC(F)(F)CN1C(=O)CNC(=O)c1ccnc2ccc(-c3ccc(C(F)(F)F)nc3)cc12` [Compound 38], the IC50 in assay [1] (Table 3B) is above 10 µM; in assay [2], below 1000 nM; in assay [3] (Table 3B, read-out: rhFAP IC50), below 1000 nM; in assay [5] (Table 3B), above 10 µM. In assay [3] (setting [7]), the inhibition at 1 µM was above 50%.
As for `C/C(=C\c1ccc2nccc(C(=O)NCC(=O)N3CC(F)(F)C[C@H]3C#N)c2c1)c1ccc(Cl)cc1` [Compound 39], the IC50 is above 10 µM in assay [1] (Table 3B); below 1000 nM in assay [2]; below 1000 nM in assay [3] (Table 3B, read-out: rhFAP IC50); above 10 µM in assay [5] (Table 3B). Besides, the inhibition at 1 µM in assay [3] (setting [7]) is above 50%.
In the case of `N#C[C@@H]1CC(F)(F)CN1C(=O)CNC(=O)c1ccnc2ccc(/C=C/c3ccc4cc(Cl)ccc4c3)cc12` [Compound 42], the IC50 in assay [1] (Table 3B) is above 10 µM; in assay [2], below 1000 nM; in assay [3] (Table 3B, read-out: rhFAP IC50), below 1000 nM; in assay [5] (Table 3B), above 10 µM. Moreover, in assay [3] (setting [7]), the inhibition at 1 µM is above 50%.
As to `COc1ccc(/C=C/c2ccc3nccc(C(=O)NCC(=O)N4CC(F)(F)C[C@H]4C#N)c3c2)cn1` [Compound 43], the IC50 in assay [1] (Table 3B) was above 10 µM; in assay [2] it was below 1000 nM; in assay [3] (Table 3B, read-out: rhFAP IC50), below 1000 nM; in assay [5] (Table 3B) it was above 10 µM. In addition, the inhibition at 1 µM in assay [3] (setting [7]) was above 50%.
As for `N#C[C@@H]1CC(F)(F)CN1C(=O)CNC(=O)c1ccnc2ccc(/C=C/c3ccc(OC(F)(F)F)cc3)cc12` [Compound 48], the IC50 in assay [1] (Table 3B) was above 10 µM; in assay [2] it was below 1000 nM; in assay [3] (Table 3B, read-out: rhFAP IC50), below 1000 nM; in assay [5] (Table 3B) it was above 10 µM. In addition, the inhibition at 1 µM in assay [3] (setting [7]) was above 50%.
